One block for each compound: values may come before it.
How the values were obtained:
[1] = target: T1, NAD-dependent protein deacetylase sirtuin-2 (Homo sapiens, UniProt Q8IXJ6); experiment: Inhibition of recombinant SIRT2 (unknown origin) using (FAM)-labeled fluorescent peptide-RHKK(Ac)LM by electrophoretic mobility shift assay
T1 sequence (Q8IXJ6 whole entry): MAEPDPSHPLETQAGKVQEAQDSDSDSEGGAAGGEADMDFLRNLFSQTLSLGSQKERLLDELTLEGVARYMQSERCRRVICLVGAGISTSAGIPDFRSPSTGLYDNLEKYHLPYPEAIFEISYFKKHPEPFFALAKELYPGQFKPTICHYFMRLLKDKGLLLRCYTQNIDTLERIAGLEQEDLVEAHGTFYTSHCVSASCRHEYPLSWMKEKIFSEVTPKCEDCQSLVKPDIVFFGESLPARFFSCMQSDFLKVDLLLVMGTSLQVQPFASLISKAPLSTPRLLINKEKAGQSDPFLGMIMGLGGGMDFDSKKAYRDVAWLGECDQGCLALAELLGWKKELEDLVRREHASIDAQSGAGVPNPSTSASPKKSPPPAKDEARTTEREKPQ

[2] = target: T1, NAD-dependent protein deacetylase sirtuin-2; experiment: Inhibition of human SIRT2 using sirtuin substrate incubated for 30 mins by enzymatic fluorescence assay
[3] = target: T1, NAD-dependent protein deacetylase sirtuin-2; experiment: Inhibition of human GST-fused SIRT2 expressed in Escherichia coli BL21(DE3)
[4] = target: T1, NAD-dependent protein deacetylase sirtuin-2; experiment: Inhibition of human SIRT2 demyristoylation activity using ETDKac as substrate
HEK-293T = experiment: Antiproliferative activity against human HEK293T cells; format: functional, cell-based
MCF7 [5] = experiment: Antiproliferative activity against human MCF7 cells; format: functional, cell-based
MDA-MB-231 [6] = experiment: Cytotoxicity against human MDA-MB-231 cells assessed as cell viability measured after 3 days by Cell Titer Blue assay; format: functional, cell-based; conditions: MDA-MB-231, 72 h
MDA-MB-468 = experiment: Cytotoxicity against human MDA-MB-468 cells assessed as cell viability measured after 3 days by Cell Titer Blue assay; format: functional, cell-based; conditions: MDA-MB-468, 72 h
MCF7 [7] = experiment: Cytotoxicity against human MCF7 cells assessed as cell viability measured after 3 days by Cell Titer Blue assay; format: functional, cell-based; conditions: MCF7, 72 h
[8] = target: T1, NAD-dependent protein deacetylase sirtuin-2; experiment: Inhibition of human SIRT2 using Ac-peptide as substrate assessed as fluorescence intensity by microplate reader
MCF7 [9] = experiment: Antiproliferative activity against human MCF7 cells incubated for 72 hrs by MTT assay; format: functional
[10] = target: T1, NAD-dependent protein deacetylase sirtuin-2; experiment: Inhibition of SIRT2 (unknown origin)
MDA-MB-231 [11] = experiment: Antiproliferative activity against human MDA-MB-231 cells incubated for 72 hrs by MTT assay; format: functional
[12] = target: T1, NAD-dependent protein deacetylase sirtuin-2; experiment: Inhibition of human SIRT2 deacetylase activity using QPKKac as substrate
[13] = target: T1, NAD-dependent protein deacetylase sirtuin-2; experiment: Inhibition of human SIRT2 expressed in Escherichia coli BL21(DE3) using Ac-Arg-His-Lys-[Lys-(Ac)]-AMC substrate
Raji = experiment: Cytotoxicity against human Raji cells assessed as cell viability after 72 hrs by CellTiter-Glo assay; format: functional, cell-based
[14] = Cytotoxicity against human DLBCL cells assessed as cell viability after 72 hrs by CellTiter-Glo assay; format: functional, cell-based
[15] = target: T2, NAD-dependent protein deacetylase sirtuin-2 (Homo sapiens) (UniProt Q8IXJ6); experiment: Inhibition of human SIRT2 (34 to 356 amino acids) by surface plasmon resonance assay relative to control; conditions: concentration not given here
T2 sequence (whole entry): T1 sequence (Q8IXJ6 whole entry)

Compound: CCC(C)(C)c1ccc(OCC(O)CN2C[C@@H]3C[C@H](C2)c2cccc(=O)n2C3)c(C(C)(C)CC)c1 (stereo partly drawn)
IC50 [3]: 460 nM

Compound: CCCCCCCCCCCCCC(=S)NCCCC[C@H](NS(C)(=O)=O)C(=O)N[C@@H](C)C(=O)N[C@@H](CCCNC(=N)N)C(N)=O
IC50 [4]: 90 nM
IC50 (HEK-293T): 10 nM
IC50 (MCF7 [5]): 50 nM

Compound: CCCCCCCCCCCCCC(=S)NCCCCC(NC(=O)OCc1ccccc1)C(=O)Nc1ccccc1 (stereo not drawn)
IC50 (MDA-MB-231 [6]): 34100 nM
IC50 (MDA-MB-468): 8600 nM
IC50 (MCF7 [7]): 8400 nM

Compound: O=C(CSc1nnc2c3ccccc3n(Cc3ccccc3)c2n1)Nc1cccc2ccccc12
IC50 [8]: 1300 nM

Compound: CCCCCCCCCCCCCC(=S)NCCCC[C@H](NS(C)(=O)=O)C(=O)N[C@H](C)C(=O)N[C@@H](CCCNC(=N)N)C(N)=O
IC50 (HEK-293T): 100 nM
IC50 (MCF7 [5]): 500 nM
IC50 [12]: 70 nM

Compound: CNC(=O)C(Cc1c(O)ccc2cc(Br)ccc12)C(=O)c1ccc(Br)cc1 (stereo not drawn)
IC50 (Raji): 9100 nM
IC50 [14]: 5700 nM

Compound: CC(C)=CCc1c(O)cc2oc3cc(O)c(O)c(CC=C(C)C)c3c(=O)c2c1O
IC50 [2]: 3800 nM

The next lines start with the values.

IC50 [1]: 180 nM
Compound: C=CCNC(=S)N/N=C/c1ccc(OC)c(Cn2cc([N+](=O)[O-])cn2)c1

IC50 [2]: 18900 nM
Compound: COc1cc2oc3cc(O)c(OC)c(CC=C(C)C)c3c(=O)c2c(O)c1CC=C(C)C

GI50 (MCF7 [9]): 8300 nM
IC50 [10]: 1560 nM
GI50 (MDA-MB-231 [11]): 8300 nM
Compound: C[C@H](NC(=O)[C@H](CCCCNC(=S)CNC(=O)c1ccccc1Nc1cccc(OCCc2ccccc2)c1)NC(=O)OCc1ccccc1)C(N)=O

IC50 [10]: 980 nM
Compound: Cc1[nH]c2c(c1C(=O)N(C)Cc1cccc(-c3ccc(C(F)(F)F)cc3)c1)C(=O)CC(C)(C)C2

IC50 [13]: 3810 nM
Compound: COc1ccc2cc(S(=O)(=O)Cc3ccc(OC(C)=O)cc3)oc2c1

IC50 [2]: 9200 nM
Compound: COc1c(O)cc2oc3cc(O)c(CC=C(C)C)c(O)c3c(=O)c2c1CC=C(C)C [MANGOSTIN]

inhibition [15]: 73.1%
Compound: CCOC(=O)c1c(/C=N/OCc2cn(CC(=O)c3ccc(OC)cc3)nn2)c2ccccc2n1C
